Data: US11666590B2, “Pharmaceutical composition, methods for treating and uses thereof” (Boehringer Ingelheim International GmbH, priority 2013, dated 2023)

What was measured:
[1] = Phase III trial of empagliflozin once daily over 12 weeks in hypertensive patients with T2DM: eGFR (MDRD) over time; type: in vivo, human
Protocol: (§1) For the purpose of the present invention, the estimated glomerular filtration rate (eGFR) is derived from the serum creatinine (SCr) value based on the MDRD formula below: eGFR (mL/min/1.73m2)=175×[SCr (μmol/L)/88.4]-1.154×[age]-0.203×[0.742 if patient is female]×[1.212 if patient is of African origin]
A Phase III trial investigated the efficacy and safety of empagliflozin (EMPA) administered orally, once daily over 12 weeks in hypertensive patients with T2DM (EMPA 10 or 25 mg, placebo (PBO)). Patients with a systolic blood pressure (SBP) of 130 to 159 mmHg and a diastolic blood pressure (DSP) of 80 to 99 mmHg were included in the trial.

[2] = Phase IIb trial of empagliflozin once daily over 78 weeks in patients with T2DM receiving basal insulin: eGFR (MDRD) over time; type: in vivo, human
Protocol: as §1
A Phase IIb trial investigated the efficacy and safety of empagliflozin (EMPA 10 or 25 mg, placebo (PBO)) administered orally, once daily over 78 weeks in patients with T2DM receiving treatment with basal insulin (glargine, detemir, or NPH insulin only).

[3] = 52 week renal impairment study: urine albumin/creatinine ratio (UACR) by baseline UACR category; type: in vivo, human; conditions: for Frequency of patients, last value on-treatment Macroalbuminuria, % / Frequency of patients, last value on-treatment Microalbuminuria, % / Frequency of patients, last value on-treatment Normal, % / Urine albumin-to-creatinine ratio, change from baseline, Mean: week 52; for mean urine albumin/creatinine ratio values (in words): patients with microalbuminuria at baseline
Protocol: In a dedicated 52 week renal impairment study, patients were categorised based on their urine albumin/creatinine ratio (UACR) values at baseline, and 3 categories of patients were distinguished: patients with normal urine albumin/creatinine ratio values (<30 mg/g), patients with microalbuminuria (30 to<300 mg/g) and patients with macroalbuminurea (≥300 mg/g).
Categories for urine albumin-to-creatinine ratio: normal:<30 mg/g, microalbuminuria 30 to<300 mg/g, macroalbuminuria:≥300 mg/g

[4] = Phase III trial of empagliflozin as add-on to existing therapy for 52 weeks in patients with T2DM and renal impairment: eGFR (MDRD) over time; type: in vivo, human; conditions: for End-of treatment eGFR Mean / End-of treatment eGFR Mean change from baseline / eGFR at week 52 (in words): week 52
Excerpt: as §1
A Phase III trial investigated the efficacy and safety of empagliflozin (EMPA) as add-on to existing therapy for 52 weeks in patients with T2DM and RI. Patients with mild RI (eGFR [MDRD equation]≥60 to<90 mL/min/1.73 m^2) received EMPA 10 or 25 mg qd or placebo (PBO). Patients with moderate RI (eGFR≥30 to<60 mL/min/1.73 m^2) received EMPA 25 mg qd or PBO. Patients with severe RI (eGFR[…] to<30 mL/min/1.73 m^2) received EMPA 25 mg qd or PBO.

[5] = metformin on its own, in the diabetic; cited from earlier work
[6] = Empa 10 mg once daily, 2-week follow up visit
[7] = Empa 25 mg once daily, 2-week follow up visit
[8] = T2DM on basal insulin, Empa 10 mg once daily, 4-week follow up visit
[9] = T2DM on basal insulin, Empa 10 mg once daily
[10] = T2DM on basal insulin, Empa 25 mg once daily, 4-week follow up visit
[11] = T2DM on basal insulin, Empa 25 mg once daily
[12] = Empa 10 mg, baseline Macroalbuminuria
[13] = Empa 10 mg, baseline Microalbuminuria
[14] = Empa 10 mg, baseline UACR Normal
[15] = Empa 25 mg, baseline Macroalbuminuria
[16] = Empa 25 mg, baseline Microalbuminuria
[17] = Empa 25 mg, baseline UACR Normal
[18] = mild renal impairment, Empa 10 mg qd, 3-week follow up visit
[19] = mild renal impairment, Empa 10 mg qd
[20] = mild renal impairment, Empa 25 mg qd, 3-week follow up visit
[21] = mild renal impairment, Empa 25 mg qd
[22] = moderate renal impairment, Empa 25 mg qd, 3-week follow-up visit
[23] = moderate renal impairment, Empa 25 mg qd
[24] = severe renal impairment, Empa 25 mg qd, 3-week follow-up visit
[25] = severe renal impairment, Empa 25 mg qd

## OC[C@H]1O[C@@H](c2ccc(Cl)c(Cc3ccc(O[C@H]4CCOC4)cc3)c2)[C@H](O)[C@@H](O)[C@@H]1O [Empa, 1-chloro-4-(β-D-glucopyranos-1-yl)-244-((S)-tetrahydrofuran-3-yloxy)-benzylFbenzene]
[1]; [6]
  Follow-up eGFR Mean: 86.25 mL/min/1.73 m^2
  Follow-up eGFR Mean change from baseline: 3.06 mL/min/1.73 m^2
  Follow-up eGFR Mean change from last value on treatment: 3.32 mL/min/1.73 m^2
[1]; Empa 10 mg once daily
  Baseline eGFR Mean: 83.01 mL/min/1.73 m^2
[1]; Empa 10 mg once daily, week 12
  Last value on treatment eGFR Mean: 82.70 mL/min/1.73 m^2
  Last value on treatment eGFR Mean change from baseline: −0.20 mL/min/1.73 m^2
[1]; [7]
  Follow-up eGFR Mean: 86.60 mL/min/1.73 m^2
  Follow-up eGFR Mean change from baseline: 2.75 mL/min/1.73 m^2
  Follow-up eGFR Mean change from last value on treatment: 5.54 mL/min/1.73 m^2
[1]; Empa 25 mg once daily
  Baseline eGFR Mean: 83.97 mL/min/1.73 m^2
[1]; Empa 25 mg once daily, week 12
  Last value on treatment eGFR Mean: 81.24 mL/min/1.73 m^2
  Last value on treatment eGFR Mean change from baseline: −2.60 mL/min/1.73 m^2
[1]; empagliflozin 10 and 25 mg, 2-week follow up visit
  mean eGFR at follow up (in words): increased to a value slightly above baseline
[1]; empagliflozin 10 and 25 mg, week 12
  eGFR at week 12 (in words): small decrease in eGFR
[2]; [8]
  eGFR at follow-up Mean: 83.74
  eGFR at follow-up Mean change from baseline: −1.88
[2]; [9]
  Baseline eGFR Mean: 85.01
  Week 18 eGFR Mean: 80.37
  Week 18 eGFR Mean change from baseline: −4.98
  Week 54 eGFR Mean: 82.55
  Week 54 eGFR Mean change from baseline: −5.68
  Week 78 eGFR Mean: 81.86
  Week 78 eGFR Mean change from baseline: −5.52
[2]; [10]
  eGFR at follow-up Mean: 81.35
  eGFR at follow-up Mean change from baseline: −0.79
[2]; [11]
  Baseline eGFR Mean: 82.88
  Week 18 eGFR Mean: 79.11
  Week 18 eGFR Mean change from baseline: −3.48
  Week 54 eGFR Mean: 77.12
  Week 54 eGFR Mean change from baseline: −4.76
  Week 78 eGFR Mean: 77.21
  Week 78 eGFR Mean change from baseline: −5.64
[2]; T2DM on basal insulin, empagliflozin 10 and 25 mg, 4-week follow up visit
  mean eGFR at follow up (in words): increased to a value slightly below baseline
[2]; empagliflozin 10 and 25 mg, 78 weeks
  eGFR on treatment (in words): small decrease in eGFR
[3]; [12]
  Frequency of patients, last value on-treatment Macroalbuminuria, %: (33.3) %
  Frequency of patients, last value on-treatment Microalbuminuria, %: (55.6) %
  Frequency of patients, last value on-treatment Normal, %: (11.1) %
[3]; [13]
  Frequency of patients, last value on-treatment Macroalbuminuria, %: (11.1) %
  Frequency of patients, last value on-treatment Microalbuminuria, %: (61.1) %
  Frequency of patients, last value on-treatment Normal, %: (27.8) %
[3]; [14]
  Frequency of patients, last value on-treatment Microalbuminuria, %: (10.6) %
  Frequency of patients, last value on-treatment Normal, %: (89.4) %
[3]; [15]
  Frequency of patients, last value on-treatment Macroalbuminuria, %: (67.1) %
  Frequency of patients, last value on-treatment Microalbuminuria, %: (30.1) %
  Frequency of patients, last value on-treatment Normal, %: (2.7) %
[3]; [16]
  Frequency of patients, last value on-treatment Macroalbuminuria, %: (3.8) %
  Frequency of patients, last value on-treatment Microalbuminuria, %: (72.2) %
  Frequency of patients, last value on-treatment Normal, %: (24.1) %
[3]; [17]
  Frequency of patients, last value on-treatment Microalbuminuria, %: (10.6) %
  Frequency of patients, last value on-treatment Normal, %: (89.4) %
[3]; Empagliflozin 10 mg, patients Normal (<30 mg/g) at baseline
  Urine albumin-to-creatinine ratio, change from baseline, Mean: 4.0 mg/g
[3]; Empagliflozin 10 mg, patients with Macroalbuminuria at baseline
  Urine albumin-to-creatinine ratio, change from baseline, Mean: -716.3 mg/g
[3]; Empagliflozin 10 mg, patients with Microalbuminuria at baseline
  Urine albumin-to-creatinine ratio, change from baseline, Mean: 7.4 mg/g
[3]; Empagliflozin 25 mg, patients Normal (<30 mg/g) at baseline
  Urine albumin-to-creatinine ratio, change from baseline, Mean: 6.0 mg/g
[3]; Empagliflozin 25 mg, patients with Macroalbuminuria at baseline
  Urine albumin-to-creatinine ratio, change from baseline, Mean: -799.9 mg/g
[3]; Empagliflozin 25 mg, patients with Microalbuminuria at baseline
  Urine albumin-to-creatinine ratio, change from baseline, Mean: -39.4 mg/g
[3]; baseline to end of treatment, empagliflozin treatment groups
  Shifts between UACR categories from macro- or microalbuminuria towards normal and from macro- to microalbuminuria, versus placebo (in words): higher frequency
[3]; patients with macroalbuminuria at baseline, empagliflozin groups
  mean urine albumin/creatinine ratio (in words): decrease in mean urine albumin/creatinine ratio
[3]; empagliflozin 10 mg
  mean urine albumin/creatinine ratio values (in words): remained nearly unchanged
[3]; empagliflozin 25 mg
  mean urine albumin/creatinine ratio values (in words): decreased
[4]; [18]
  Follow-up eGFR Mean: 69.84 mL/min/1.73 m^2
  Follow-up eGFR Mean change from baseline: 2.06 mL/min/1.73 m^2
[4]; [19]
  Baseline eGFR Mean: 68.42 mL/min/1.73 m^2
  End-of treatment eGFR Mean: 68.07 mL/min/1.73 m^2
  End-of treatment eGFR Mean change from baseline: −0.76 mL/min/1.73 m^2
[4]; [20]
  Follow-up eGFR Mean: 73.38 mL/min/1.73 m^2
  Follow-up eGFR Mean change from baseline: 1.28 mL/min/1.73 m^2
[4]; [21]
  Baseline eGFR Mean: 72.01 mL/min/1.73 m^2
  End-of treatment eGFR Mean: 66.25 mL/min/1.73 m^2
  End-of treatment eGFR Mean change from baseline: −5.67 mL/min/1.73 m^2
[4]; mild renal impairment, empagliflozin 10 and 25 mg, 3-week follow up visit
  mean eGFR at follow up (in words): increased to a value slightly above baseline
[4]; mild renal impairment, empagliflozin 10 and 25 mg
  eGFR at week 52 (in words): small decrease in eGFR
[4]; [22]
  Follow-up eGFR Mean: 45.39 mL/min/1.73 m^2
  Follow-up eGFR Mean change from baseline: 1.48 mL/min/1.73 m^2
[4]; [23]
  Baseline eGFR Mean: 43.84 mL/min/1.73 m^2
  End-of treatment eGFR Mean: 40.58 mL/min/1.73 m^2
  End-of treatment eGFR Mean change from baseline: −3.55 mL/min/1.73 m^2
[4]; moderate renal impairment, empagliflozin 25 mg, 3-week follow-up visit
  mean eGFR at follow-up (in words): increased to a value slightly above baseline
[4]; moderate renal impairment, empagliflozin 25 mg
  eGFR at week 52 (in words): small decrease in eGFR
[4]; [24]
  Follow-up eGFR Mean: 23.63 mL/min/1.73 m^2
  Follow-up eGFR Mean change from baseline: −0.59 mL/min/1.73 m^2
[4]; [25]
  Baseline eGFR Mean: 24.22 mL/min/1.73 m^2
  End-of treatment eGFR Mean: 20.23 mL/min/1.73 m^2
  End-of treatment eGFR Mean change from baseline: −3.98 mL/min/1.73 m^2
[4]; severe renal impairment, empagliflozin 25 mg, 3-week follow-up visit
  mean eGFR at follow-up (in words): increased to a value slightly below baseline
[4]; severe renal impairment, empagliflozin 25 mg
  eGFR at week 52 (in words): small decrease in eGFR

## CN(C)C(=N)N=C(N)N [metformin]
[5]
  average improvement in the HbA1c value: 1.0-1.5%
